Source: US20110318277A1, “TACROLIMUS COMPOSITIONS FOR AEROSOL ADMINISTRATION” (APT Pharmaceuticals, Inc. University of Maryland, Baltimore, priority 2010, published 2011)

Experiments:
[1] = test system: calcineurin; conditions: as a calcineurin inhibitor; Kino et al. 1987; cited from earlier work
[2] = Aerosol exposure study of tacrolimus in rats, blood and lung pharmacokinetics; format: in vivo, male Sprague-dawley rats; conditions: rat; for AUClast / Tmax: lung; for Cmax: 30 min aerosol exposure
Procedure: A total of 54 male Sprague-dawley rats of approximately 250 g body weight were exposed to aerosols of tacrolimus (in a propylene-glycol:ethanol mixture) generated by jet-nebulizer for 30 minutes. […] Estimated deposited doses for the 30 minute exposure (assuming 10% deposition efficiency) were 0.072 and 0.256 mg/kg for the “low” and “high” dose groups. Lung and blood samples were obtained for groups of animals (n=3/time point).

[3] = Solubility of tacrolimus in ethanol and hydrofluoroalkanes; format: physicochemical
[4] = Aerosol exposure study of tacrolimus in rats, blood and lung pharmacokinetics; format: in vivo, male Sprague-dawley rats; conditions: rat
[5] = Chemical stability of tacrolimus in ethanol as a function of temperature; format: physicochemical; conditions: 200 mg/ml in ethanol, around day 30
Procedure: The degradant levels contained in solutions of tacrolimus dissolved in ethanol at a fixed concentration of 200 mg/ml were determined over time as a function of temperature. Samples were stored at the following temperatures: 35° C., 45° C., and 55° C.

[6] = Particle size of jet-nebulized tacrolimus aerosol; format: physicochemical; conditions: jet-nebulizer
[7] = Chemical stability of tacrolimus in ethanol as a function of concentration (HPLC); format: physicochemical; conditions: 55 °C, 26 days
Procedure: The chemical stability of tacrolimus in ethanol at different concentrations ranging from 100 to 400 mg/ml when stored at 55° C. was investigated.
Samples were analyzed using reverse phase HPLC with an acetonitrile-water gradient and UV detection. Samples were prepared in a non-aqueous medium, i.e., acetonitrile, to limit the interconversion of tautomers and to promote stability. Column temperature was set at 60° C. to further promote equilibrium between the cis-trans isomers. The gradient was set at 5% acetronitrile with a run time of 20 minutes. Acetic acid (0.002%) was added to mobile phase A (water). A solution of tacrolimus in 1:1 acetonitrile-water was incubated at 55° C. for 45 minutes to obtain an equilibrium mixture of the 3 tautomers so that retention times of each tautomer could be obtained.

[8] = male, Sprague-Dawley, inhaled or intranasal, blood, High Inhalation 0.256 mg/kg
[9] = male, Sprague-Dawley, inhaled or intranasal, blood, Low Inhalation 0.072 mg/kg
[10] = male, Sprague-Dawley, 0.4 mg/kg, blood, IV Bolus 0.400 mg/kg
[11] = male, Sprague-Dawley, 0.4 mg/kg, lung, IV Bolus 0.400 mg/kg

C=CC[C@@H]1/C=C(\C)C[C@H](C)C[C@H](OC)[C@H]2O[C@@](O)(C(=O)C(=O)N3CCCC[C@H]3C(=O)O[C@H](/C(C)=C/[C@@H]3CC[C@@H](O)[C@H](OC)C3)[C@H](C)[C@@H](O)CC1=O)[C@H](C)C[C@@H]2OC [tacrolimus, 17-allyl-1,14-dihydroxy-12-[2-(4-hydroxy-3-methoxycyclohexyl)-1-methylvinyl]-23,25-dimethyoxy-13,19,21,27-tetramethyl-11,28-dioxa-4-azatricyclo-[22.3.1.0^4,9]octacos-18-ene-2,3,10,16-tetraone]
potency relative to cyclosporine [1]: up to one hundred times more potent | AUClast ([2]; High Inhalation 0.256 mg/kg): 22750 ng·h/g | AUClast ([2]; Low Inhalation 0.072 mg/kg): 19722 ng·h/g | Cmax [2, 8]: 149 ng/mL | AUC(0-t) [2, 8]: 194 ng·h/mL | Cmax [2, 9]: 40 ng/mL | AUC(0-t) [2, 9]: 121 ng·h/mL | half-life [2, 9]: 179 min | Tmax ([2]; male, Sprague-Dawley, inhaled or intranasal, High Inhalation 0.256 mg/kg): 4.98 min | Tmax ([2]; male, Sprague-Dawley, inhaled or intranasal, Low Inhalation 0.072 mg/kg): 4.98 min | solubility in ethanol ([3]; ethanol): readily soluble | solubility in hydrofluoroalkanes ([3]; hydrofluoroalkanes): essentially insoluble | AUClast ([4]; lung, IV Bolus 0.400 mg/kg): 334095 ng·h/g | AUC(0-t) [4, 10]: 179 ng·h/mL | Cmax [4, 10]: 78.2 ng/mL | Tmax [4, 10]: 4.98 min | half-life [4, 10]: 114 min | Cmax [4, 11]: 19100 ng/g | Tmax [4, 11]: 4.98 min | half-life [4, 11]: 1470 min | Tmax [4, 8]: 4.98 min | half-life [4, 8]: 104 min | Tmax [4, 9]: 4.98 min | Cmax ([4]; male, Sprague-Dawley, inhaled or intranasal, lung, High Inhalation 0.256 mg/kg, 30 min aerosol exposure): 18100 ng/g | half-life ([4]; male, Sprague-Dawley, inhaled or intranasal, lung, High Inhalation 0.256 mg/kg): 1400 min | Cmax ([4]; male, Sprague-Dawley, inhaled or intranasal, lung, Low Inhalation 0.072 mg/kg, 30 min aerosol exposure): 9960 ng/g | half-life ([4]; male, Sprague-Dawley, inhaled or intranasal, lung, Low Inhalation 0.072 mg/kg): 548 min | impurity level ([5]; stored at 35 °C): about 3% | impurity level ([5]; stored at 55 °C): about 11% | MMAD (GSD) ([6]; 50 mg/ml solution in propylene-glycol:ethanol mixture): 2.53 (1.71) μm | MMAD (GSD) ([6]; 150 mg/ml solution in propylene-glycol:ethanol mixture): 2.56 (1.73) μm | degradation of tacrolimus ([7]; 100 mg/ml in ethanol): approximately 7% | degradation of tacrolimus ([7]; 400 mg/ml in ethanol): less than 1%
